Series [1] concerns Endonuclease S1. Put plainly: Enzymatic degradation of hexamers by endonuclease S1. The format is in vitro ADME. From the text: (§1) Study of the substrate-type activities of hexamers 4'-SrU6, 4'-SrU6 -3'n-prOH compared with the substrate characteristics of the hexamers βrU6 and αrU6 in relation to various purified nucleases.
Endonuclease S1, specific for the single DNA strand hydrolyzes the phosphodiester bonds in a random manner.
(§2) These four enzymes were obtained from Boehringer Mannheim.
(§3) Generally, one optical density unit at 260 nm of each hexamer is brought into contact with a certain concentration of the enzyme considered and is then diluted in a sufficient quantity for 1000 μl of enzymatic digestion buffer.
(§4) Various digestion buffers were used depending on the nature of the enzyme (Table 9).
(§5) The stock sample is divided into 10 fractions of 100 μl before being frozen at -18° C.
(§6) One aliquot fraction of 100 μl is collected and incubated in a dry oven thermostated at 37° C. for a time t and is then analyzed by analytical HPLC.
(§7) The study of the surface area of the signal corresponding to the hexamer makes it possible to measure a kinetics of degradation whose half-life period is calculated (Table 10).

Series [2] has as its system 3'-exonuclease snake venom phosphodiesterase. The format is in vitro ADME.
Text: as §1
Snake venom phosphodiesterase (VSP) is a 3'-exonuclease-3' which liberates nucleotides 5'-phosphate after degrading the oligomer by its 3' end.
as §2, §3, §4, §5, §6, §7

In series [3] the test system is 5'-exonuclease calf spleen phosphodiesterase. The series can be described thus: Enzymatic degradation of hexamers by 5'-exonuclease calf spleen phosphodiesterase. The format is in vitro ADME.
Text: as §1
Calf spleen phosphodiesterase (CSP) is a 5'-exonuclease which degrades the oligonucleotides from their 5' end and liberates nucleotides 3'-phosphates.
as §2, §3, §4, §5, §6, §7

Series [4] has as its system Ribonuclease A. Put plainly: Enzymatic degradation of hexamers by ribonuclease A. The series is classed as in vitro ADME. On the procedure:
as §1
Ribobuclease A degrades an oligoribonucleotide after the pyrimidine residues.
as §2, §3, §4, §5, §6, §7

The test system of series [5] is βdC2 A12 C2 (SEQ ID NO: 4). Put plainly: Melting of duplexes with βdC2 A12 C2 (UV spectrophotometry, melting temperature). The series is classed as binding. The conditions noted are these: for Melting temperature (Tm): 10 mM sodium cacodylate, pH 7; for Tm: Table 7, duplex with d(C2 A12 C2), 3 μM.
Text: (§8) UV spectrophotometry makes it possible to study the nucleic acids and to detect the formation of duplex, the melting temperature being one of the characteristics of a duplex. The stacking and pairing of the bases of the nucleic acids are accompanied by a decrease in the UV absorbtion (hypochromicity). […] The point of inflection of the curve, of sygmoidal shape, of the variation of the absorbance as as function of temperature is called melting temperature or Tm and corresponds to the co-existence of separate strands and paired strands in a 50/50 ratio.
(§9) Analysis of the melting curves for the β-4'-thiooligoribonucleotide/β-oligodeoxyribonucleotide and β-4'-thiooligoribonucleotide/β-oligoribonucleotide duplexes will make it possible to define the thermal stability of such duplexes by the measurement of the melting temperature. These hybridization experiments are carried out preserving a 1/1 stoichiometry between the two complementary strands, in the presence of a 1M NaCl, 10 mM sodium cacodylate buffer. A high NaCl concentration indeed favors the pairings by solvating the negative charges around the phosphorus atoms of the two oligonucleotides. We therefore carried out these hybridization experiments in a 0.1M NaCl, 10 mM sodium cacodylate buffer.
(§10) In order to carry out the hybridization experiment, it is necessary to know the concentration of each oligomer in order to preserve the 1:1 stoichiometry between the two complementary strands. According to the BEER-LAMBERT law A=ε1c, the absorbances of the oligomers were measured at 80° C. in order to remove the phenomenon of stacking of the bases creating a disturbance in the hyperchromicity due to the existence of tertiary structures.
(§11) The hybridization experiments were carried out with a UVIKON 810 spectrophotometer (KONTRON), coupled to an IBM-compatible microcomputer. […] The UV cuvettes are made from quartz of 1 cm in length and a continous circulation of nitrogen is used for temperatures of less than 20° C. […] This mixture is heated at 80° C. for 1 hour, and then cooled to -20° C. according to a temperature gradient of 0.5° C. per minute. The absorbance and temperature values are collected every 30 seconds.
(§12) The same experiment is carried out using a sufficient quantity for 1000 μl of 0.1M NaCl, 10 mM sodium cacodylate hybridization buffer adjusted to pH 7 in order to evaluate the thermal stability of the duplex in this buffer which favors the pairings less.
(§13) The hybridization experiments were carried out preserving the 1/1 stoichiometry between the two complementary strands in the presence of a 1M NaCl, 10 mM sodium cacodylate buffer. A high NaCl concentration indeed favors the pairings by solvating the negative charges around the phosphorus atoms of the two oligonucleotides. We carried out these hybridization experiments in another buffer 0.1M NaCl, 10 mM sodium cacodylate.
(§14) In order to carry out the hybridization experiments, it is necessary to know the concentration of each oligomer in order to preserve the 1:1 stoichiometry between the two complementary strands. According to the BEER-LAMBERT law A=ε1c, the absorbances of the oligomers were measured at 80° C. in order to remove the phenomenon of stacking of the bases creating a disturbance in the hyperchromicity due to the existence of tertiary structures.
as §11

Series [6] has as its system calf spleen phosphodiesterase. Put plainly: Enzymatic degradation of the dodecamers by calf spleen phosphodiesterase. The format is in vitro ADME. Conditions: for Degradation in 0 min / Degradation in 25 min: Table 8. The text has this: Study of the enzymatic degradation of the dodecamer β(SrT)dT11 (SEQ ID NO: 3) by calf spleen phosphodiesterase. Calf spleen phosphodiesterase is an exonuclease which degrades the oligomers from their free 5' ends, thus liberating nucleotides 3' phosphate.
This study will allow us to evaluate the resistance to enzymatic degradation induced by the presence in the 5' position of a 4'-thionucleotide unit in the oligomer β(SrT)dT11 (SEQ ID NO: 3) compared to the enzymatic degradation of the oxygenated natural homolog βdT12 (SEQ ID NO: 3). The comparative stability of the two dodecamers βdT12 (SEQ ID NO: 3) and β(SrT)dT11 (SEQ ID NO: 3) towards hydrolysis by calf spleen phosphodiesterase is presented in Table 8.
The variation over time of the enzymatic degradation of the two dodecamers was monitored by HPLC. We were able to plot the curve for enzymatic digestion of β(SrT)dT11 (SEQ ID NO: 3) as a function of time: A=A0 e^-kt (FIG. 2, A) where:
A0 is the initial surface area of the 12-mer
A is the surface area of the 12-met at the instant t
k is the first order rate constant for the degradation
An oligonucleotide solution (20 μl, 3 absorbance units at 260 nm) is diluted in 0.125M ammmonium acetate buffer (pH 7.0), 2.5 mM EDTA and 0.065% Tween 80 (80 μL). A commercial solution of calf spleen phosphodisesterase (2 μl, final concentration 0.008 unit/ml) is added and the mixture is incubated at 37° C. At determined times, aliquot fractions are collected (5 μl), heated at 100° C. for one minute and analyzed by HPLC.
The analyses were carried out on an PVDI (Polyvinylimidazole SFCC-Shandon) column protected by a precolumn and a prefilter. The elution is carried out based on a linear gradient over 20 minutes from 0.1M to 0.4M KCl in 20 mM KH2 PO4 at pH 6 containing 20% acetonitrile. The flow rate was fixed at 1 ml/min and the UV detection at 260 nm.

The test system of series [7] is βSrU12 (SEQ ID NO: 5). Put plainly: Self-hybridization of the oligomer βSrU12. The format is binding. The conditions noted are these: 1M and 0.1M NaCl. The protocol: For that, an experiment for self-hybridization of the dodecamer βSrU12 (SEQ ID NO: 5) was carried out at two NaCl concentrations (1M and 0.1M). […] No point of inflection can be visualized on such a straight line.
The hybridization experiments were carried out with a UVIKON 810 spectrophotometer (KONTRON), coupled to an IBM-compatible microcomputer. The temperature is controlled by a HUBER PD 415 temperature programmer connected to a thermostated bath (HUMER […]). The UV cuvettes are made from quartz of 1 cm in length and a continous circulation of nitrogen is used for temperatures of less than 20° C. Before the experiment, 3 μM (Examples 1 to V) or 10 μM (Examples VI and VII) of complementary oligomers are brought into contact in a sufficient quantity for 1000 μl of 1M NaCl and 10 mM sodium cacodylate buffer, adjusted to pH 7 (Examples I to VII). This mixture is heated at 80° C. for 1 hour, and then cooled to -20° C. according to a temperature gradient of 0.5° C. per minute. The absorbance and temperature values are collected every 30 seconds.
as §12
Concentration of βrU12 (SEQ ID NO: 5)=0.351 mM […]

Series [8] relates to polyrA. Put plainly: Melting of duplexes with polyrA (UV spectrophotometry, melting temperature). The series is classed as binding. Conditions: for Melting temperature (Tm) / hypochromicity: Table 4, 3 μM of each oligomer; for Melting temperature (Tm): 10 mM sodium cacodylate, pH 7; for thermal stability with complementary RNA (in words): complementary RNA sequences; for Tm: Table 7, duplex with poly rA, 3 μM.
Text: as §8, §9, §10, §11, §12, §13, §14, §11

The mark [9] stands for this setting: Table 6, 1M NaCl, 10 μM of each oligomer.
[10] abbreviates: Table 5, 0.1M NaCl, 3 μM of each oligomer.
Setting [11] is: Table 5, 1M NaCl, 3 μM of each oligomer.

“Also recorded” adds a separate entry of the source.

In the case of 4'-Sr-(U-U-U-U-U-U) [βSrU6], the “enzymatic resistance compared with βrU6 (in words)” value in series [1] (S1), in series [2] (VSP), in series [3] (CSP) and in series [4] (RNase-A) was “high enzymatic resistance” throughout. Moreover, the Half-life period stood at 15.5 h in series [1] (Table 10, S1 20 units/ml, pH 4.7, 37° C.); 1.27 h in series [2] (Table 10, VSP 6 × 10^-4 units/ml, pH 9.4, 37° C.); 65 h in series [3] (Table 10, CSP 13 × 10^-3 units/ml, pH 7, 37° C.); 11.2 h in series [4] (Table 10, RNAse A 2 × 10^-2 units/ml, pH 7.4, 37° C.).
As for “βdT12: oxygenated natural homolog βdT12 [reference compound]”, in series [5] (setting [9]), the “Melting temperature (Tm)” value was found to be 45 °C and the hypochromicity came out at 20.5%. In series [6] (FIG. 2, 37° C., 0.008 unit/ml), the “half-life period (t1/2)” value is 0.017 h. In series [6] (37° C., 0.008 unit/ml), the “Degradation in 0 min” value came out at 0% and the “Degradation in 25 min” value was 93%.
“βSrU12: homododecamer 4'-thio-β-D-ribonucleotide (βrSU12)”: the “Melting temperature (Tm)” value in series [5] (setting [10]) came to 5 °C; in series [5] (setting [11]) it was 27 °C; in series [8] (0.1M NaCl) it was 33 °C; in series [8] (1M NaCl), 46 °C. Moreover, the hypochromicity in series [5] (setting [10]) is reported as 5.6%; in series [5] (setting [11]), 9.3%; in series [8] (0.1M NaCl), 25%; in series [8] (1M NaCl), 25%. In addition, the “self-hybridization (in words)” value in series [7] was “does not self-pair; also recorded: no self-hybridization”. In series [8], the “thermal stability with complementary RNA (in words)” value (shortened to “thermal stability”) is “good thermal stability”.
“β(SrT)dT11: dodecamer with a 4'-thionucleotide unit in the 5' position (TTTTTTTTTTTT; 5' 4'-thionucleotide unit)”: in series [6] (FIG. 2, 37° C., 0.008 unit/ml), the “first order rate constant for the degradation (k)” value was found to be 0.016 min⁻¹ and the “half-life period (t1/2)” value turned out to be 0.717 h. In series [6] (37° C., 0.008 unit/ml), the “Degradation in 0 min” value was determined as 0% and the “Degradation in 25 min” value is 23%. Also, the “half-life period compared with that of βSrU12 (in words)” value in series [6] (degradation by the 5' end) is “substantially greater”.
As to “4'-SrU3 -dT6 -4'-SrU3 /P3 PS5 P3 (UUUTTTTTTUUU; 4'-thioribouridine units; phosphorothioate bonds) [compound 5, mixed dodecamer containing both phosphodiester and phosphorothioate bonds]”, the melting temperature (Tm) came out at 3 °C in series [5] (0.1 M NaCl), 19 °C in series [5] (1 M NaCl), 24 °C in series [8] (0.1 M NaCl) and 36 °C in series [8] (1 M NaCl). Besides, in series [8], the “thermal stability” value is “good thermal stability”. The “decrease in the Tm value per phosphorothioate linkage” value in series [8] (with poly rA and d(C2 A12 C2), versus phosphodiester oligomer 4) was “about 2 °C”.
In the case of βdT5 (SrT)dT6: dodecamer βdT5 (SrT) dT6, the “difference in Tm (modified duplex lower than natural duplex)” value in series [5] (1M NaCl, 10 μM, versus βdT12/βdC2 A12 C2) worked out at 5 °C. For the same substance, in series [5] (setting [9]), the “Melting temperature (Tm)” value is 40 °C and the hypochromicity was determined as 18%.
Consider “4'-SrU3 -dT6 -4'-SrU3 /P11 (UUUTTTTTTUUU; 4'-thioribouridine units) [compound 4, mixed dodecamer with phosphodiester bonds]”, for which the Tm in series [5] (0.1 M NaCl) came out at 10 °C; in series [5] (1 M NaCl) it was 31 °C; in series [8] (0.1 M NaCl), 32 °C; in series [8] (1 M NaCl) it was 45 °C. For the same substance, the “Tm values compared with those of βrSU12 (in words)” value in series [5] (with d(C2 A12 C2)) and in series [8] (with poly rA) was “equivalent” throughout. Also, in series [8], the “thermal stability” value was “good thermal stability”.

The record behind these values is patent US5639873A, “Oligothionucleotides” (Centre National de la Recherche Scientifique (CNRS), priority 1992, dated 1997).
